# In US8686024B2, “Indoline derivatives” (priority 2009, dated 2014):
# Where two headings read alike, the source gives them in different places.
# How the values were obtained:
# [1] = molecular target: T1, butyrylcholine esterase (BuChE) (Mus musculus, UniProt Q03311); assay: In vitro assay for choline esterase inhibition (Ellman method), butyrylthiocholine substrate, mouse serum; format: biochemical; details: for Ratio AChE/BuChE: selectivity for BuChE inhibition: IC50 (AchE)/IC50 (BuChE); for selectivity to butyrylcholinesterase (BuChE versus AChE inhibitory activity), in words: summary of Tables 1-3
# T1 construct: brain homogenate and serum of mouse were used as choline esterase enzyme sources; from tissue; host or cells: mouse serum
# Method in brief: (§1)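 Enzyme sources were mouse brain homogenate for AChE (acetylthiocholine substrate) and mouse serum for BuChE (butyrylthiocholine substrate). Compounds were diluted in DMSO and incubated with substrate and DTNB, and the thiocholine–DTNB product was read at 415 nm (Ellman method). Selectivity was taken as IC50(AChE)/IC50(BuChE).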
# [2] = molecular target: T2, acetylcholine esterase (AChE) (Mus musculus, UniProt P21836); assay: In vitro assay for choline esterase inhibition (Ellman method), acetylthiocholine substrate, mouse brain homogenate; format: biochemical
# T2 construct: brain homogenate and serum of mouse were used as choline esterase enzyme sources; from tissue; host or cells: mouse brain homogenate
# T2 sequence (P21836 32-614): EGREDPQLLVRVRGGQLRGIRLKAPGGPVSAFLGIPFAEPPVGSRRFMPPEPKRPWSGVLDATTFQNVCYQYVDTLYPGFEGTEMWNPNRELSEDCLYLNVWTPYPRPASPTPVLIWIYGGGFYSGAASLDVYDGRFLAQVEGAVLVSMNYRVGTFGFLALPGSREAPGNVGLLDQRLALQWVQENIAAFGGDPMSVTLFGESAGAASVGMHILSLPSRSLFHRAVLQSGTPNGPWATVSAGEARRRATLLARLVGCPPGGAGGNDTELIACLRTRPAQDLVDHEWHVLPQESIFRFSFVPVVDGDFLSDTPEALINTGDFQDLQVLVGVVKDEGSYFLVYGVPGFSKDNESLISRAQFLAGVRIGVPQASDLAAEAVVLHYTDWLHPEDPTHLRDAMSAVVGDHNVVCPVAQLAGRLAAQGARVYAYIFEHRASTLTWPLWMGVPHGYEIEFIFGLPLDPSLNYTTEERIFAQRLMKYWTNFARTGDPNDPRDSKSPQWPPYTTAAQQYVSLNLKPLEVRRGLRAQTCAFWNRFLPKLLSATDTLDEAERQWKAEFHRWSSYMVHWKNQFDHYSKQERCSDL
# Method in brief: as §1
# [3] = mouse serum, butyrylthiocholine, absorbance at 415 nm, read-out: BuChE inhibitory activity IC50
# [4] = mouse brain homogenate, acetylthiocholine, absorbance at 415 nm, read-out: AChE inhibitory activity IC50
# T1 sequence (Q03311 30-603): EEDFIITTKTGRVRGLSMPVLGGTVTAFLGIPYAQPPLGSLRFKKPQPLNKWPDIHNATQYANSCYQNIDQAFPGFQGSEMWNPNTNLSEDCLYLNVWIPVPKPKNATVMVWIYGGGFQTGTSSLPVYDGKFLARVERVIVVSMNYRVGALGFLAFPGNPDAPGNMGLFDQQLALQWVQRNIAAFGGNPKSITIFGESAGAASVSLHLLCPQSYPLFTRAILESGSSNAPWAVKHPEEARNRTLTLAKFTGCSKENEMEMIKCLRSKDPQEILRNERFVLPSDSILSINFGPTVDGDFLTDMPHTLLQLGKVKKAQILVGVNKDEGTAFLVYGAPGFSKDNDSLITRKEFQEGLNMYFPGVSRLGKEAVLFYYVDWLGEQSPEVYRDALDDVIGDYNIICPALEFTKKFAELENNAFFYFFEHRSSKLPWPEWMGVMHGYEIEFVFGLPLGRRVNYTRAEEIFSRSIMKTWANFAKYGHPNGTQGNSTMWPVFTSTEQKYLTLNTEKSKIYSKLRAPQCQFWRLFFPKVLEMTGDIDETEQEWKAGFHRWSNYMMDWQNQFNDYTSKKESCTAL
Structure (SMILES),melting point,other results
O=C(Nc1ccc(-c2ccccc2)cc1)Oc1ccc2c(c1)CCN2Cc1ccccc1,175 to 178 °C,–
CNC(=O)Oc1ccc2c(c1)CCN2,109 to 112 °C,–
O=C(NCC1CCCCC1)Oc1ccc2c(c1)CCN2,129 to 133 °C,–
O=C(Nc1ccc2ccccc2c1)Oc1ccc2c(c1)CCN2Cc1ccccc1,161 to 167 °C,–
O=C(Nc1ccc(C2CCCCC2)cc1)Oc1ccc2c(c1)CCN2Cc1ccccc1,171 to 174 °C,–
O=C(Nc1ccncc1)Oc1ccc2c(c1)CCN2Cc1ccccc1,132 to 136 °C,–
COc1cc(CN2CCc3cc(OC(=O)Nc4ccc(C(C)C)cc4)ccc32)ccc1N(C)C,152 to 153 °C,–
O=C(Nc1ccc(Oc2ccccc2)cc1)Oc1ccc2c(c1)CCN2Cc1ccccc1,155 to 160 °C,–
CC(C)c1ccc(NC(=O)Oc2ccc3c(c2)CCN3Cc2ccco2)cc1,168 to 171 °C,–
CC(C)c1ccc(NC(=O)Oc2ccc3c(c2)CCN3Cc2cccc3ncccc23)cc1,195 to 199 °C,–
"CN(CC1CCCCC1)C(=O)Oc1ccc2c(c1)C(C)(C)CN2Cc1ccccc1 [Example 216, O-(1-benzyl-3,3-dimethylindolin-5-yl)-N-(cyclohexylmethyl)-N-methylcarbamate]",–,"IC50 [1]: 2.4 nM; Ratio AChE/BuChE [1]: 23000; selectivity to butyrylcholinesterase (BuChE versus AChE inhibitory activity), in words [1]: much higher; IC50 [2]: 54000 nM"
"COc1ccccc1CCNC(=O)Oc1ccc2c(c1)CCN2Cc1ccccc1 [Example 117, 1-benzylindolin-5-yl 2-methoxyphenethylcarbamate]",–,"IC50 [1, 3]: 24 nM; Ratio AChE/BuChE [1]: 330; selectivity to butyrylcholinesterase (BuChE versus AChE inhibitory activity), in words [1]: much higher; IC50 [2, 4]: 7900 nM"
"CC(C)c1ccc(NC(=O)Oc2ccc3c(c2)C(C)(C)CN3Cc2ccccc2)cc1 [Example 145, 1-benzyl-3,3-dimethylindolin-5-yl-4-isopropylphenylcarbamate]",–,"IC50 [1, 3]: 280 nM; Ratio AChE/BuChE [1]: >360; IC50 [2, 4]: > 100000 nM"
"O=C(NCCc1ccccc1)Oc1ccc2c(c1)CCN2Cc1ccccc1 [Example 16, 1-benzylindolin-5-yl phenethylcarbamate]",–,"IC50 [1, 3]: 42 nM; Ratio AChE/BuChE [1]: 230; selectivity to butyrylcholinesterase (BuChE versus AChE inhibitory activity), in words [1]: much higher; IC50 [2, 4]: 9800 nM"

# The next lines start with results.
melting point,Structure (SMILES),other results
194 to 196 °C,CC(C)c1ccc(NC(=O)Oc2ccc3c(c2)CCN3Cc2ccc3cc[nH]c3c2)cc1,–
150 to 152 °C,CC(C)c1ccc(NC(=O)Oc2ccc3c(c2)CCN3Cc2ccc3ccccc3n2)cc1,–
140 to 144 °C,COc1ccc(NC(=O)Oc2ccc3c(c2)CCN3)cc1OC,–
136 to 140 °C,CC(C)c1ccc(NC(=O)Oc2ccc3c(c2)CCN3Cc2ccc3ccccc3c2)cc1,–
62 to 66 °C,CCCN(CCC)C(=O)C1Cc2cc(OC(=O)Nc3ccc(C(C)C)cc3)ccc2N1Cc1ccccc1 (stereo not shown),–
149 to 153 °C,COC(=O)c1ccc(CN2CCc3cc(OC(=O)Nc4ccc(C(C)C)cc4)ccc32)cc1,–
225 to 229 °C,O=C(Nc1ccc([N+](=O)[O-])cc1)Oc1ccc2c(c1)CCN2Cc1ccccc1,–
170 to 174 °C,CC(C)c1ccc(NC(=O)Oc2ccc3c(c2)CCN3Cc2ccc(O)c(Cl)c2)cc1,–
105 to 112 °C,O=C(Nc1ccccc1)Oc1ccc2c(c1)CCN2Cc1ccccc1,–
220 to 224 °C,COc1ccc(NC(=O)Oc2ccc3c(c2)CCN3)cc1,–
166 to 170 °C,CC(C)c1ccc(NC(=O)Oc2ccc3c(c2)CCN3)cc1,–
75 to 80 °C,CC(C)c1ccc(NC(=O)Oc2ccc3c(c2)CCN3Cc2cc(N(C)C)c3ccccc3c2)cc1,–
